ChEMBL document CHEMBL5625183, “Discovery of a novel dual-target inhibitor of CDK12 and PARP1 that induces synthetic lethality for treatment of triple-negative breast cancer” (Eur J Med Chem, 2023)
Where “and” joins values, the source holds several entries; their conditions need not be identical. Equal values may be shown once. Calls of active or inactive are those of the source. The calls are words filed in the database; no cut-off is given here.

Assays:
[1] = target: T1, Cyclin-dependent kinase 12 (Homo sapiens, UniProt Q9NYV4); test: Inhibition of CDK12 (unknown origin) at 1 uM in presence of ATP by kinase-glo plus luminescent assay relative to control
Target sequence in this assay (Q9NYV4 whole entry, looked up): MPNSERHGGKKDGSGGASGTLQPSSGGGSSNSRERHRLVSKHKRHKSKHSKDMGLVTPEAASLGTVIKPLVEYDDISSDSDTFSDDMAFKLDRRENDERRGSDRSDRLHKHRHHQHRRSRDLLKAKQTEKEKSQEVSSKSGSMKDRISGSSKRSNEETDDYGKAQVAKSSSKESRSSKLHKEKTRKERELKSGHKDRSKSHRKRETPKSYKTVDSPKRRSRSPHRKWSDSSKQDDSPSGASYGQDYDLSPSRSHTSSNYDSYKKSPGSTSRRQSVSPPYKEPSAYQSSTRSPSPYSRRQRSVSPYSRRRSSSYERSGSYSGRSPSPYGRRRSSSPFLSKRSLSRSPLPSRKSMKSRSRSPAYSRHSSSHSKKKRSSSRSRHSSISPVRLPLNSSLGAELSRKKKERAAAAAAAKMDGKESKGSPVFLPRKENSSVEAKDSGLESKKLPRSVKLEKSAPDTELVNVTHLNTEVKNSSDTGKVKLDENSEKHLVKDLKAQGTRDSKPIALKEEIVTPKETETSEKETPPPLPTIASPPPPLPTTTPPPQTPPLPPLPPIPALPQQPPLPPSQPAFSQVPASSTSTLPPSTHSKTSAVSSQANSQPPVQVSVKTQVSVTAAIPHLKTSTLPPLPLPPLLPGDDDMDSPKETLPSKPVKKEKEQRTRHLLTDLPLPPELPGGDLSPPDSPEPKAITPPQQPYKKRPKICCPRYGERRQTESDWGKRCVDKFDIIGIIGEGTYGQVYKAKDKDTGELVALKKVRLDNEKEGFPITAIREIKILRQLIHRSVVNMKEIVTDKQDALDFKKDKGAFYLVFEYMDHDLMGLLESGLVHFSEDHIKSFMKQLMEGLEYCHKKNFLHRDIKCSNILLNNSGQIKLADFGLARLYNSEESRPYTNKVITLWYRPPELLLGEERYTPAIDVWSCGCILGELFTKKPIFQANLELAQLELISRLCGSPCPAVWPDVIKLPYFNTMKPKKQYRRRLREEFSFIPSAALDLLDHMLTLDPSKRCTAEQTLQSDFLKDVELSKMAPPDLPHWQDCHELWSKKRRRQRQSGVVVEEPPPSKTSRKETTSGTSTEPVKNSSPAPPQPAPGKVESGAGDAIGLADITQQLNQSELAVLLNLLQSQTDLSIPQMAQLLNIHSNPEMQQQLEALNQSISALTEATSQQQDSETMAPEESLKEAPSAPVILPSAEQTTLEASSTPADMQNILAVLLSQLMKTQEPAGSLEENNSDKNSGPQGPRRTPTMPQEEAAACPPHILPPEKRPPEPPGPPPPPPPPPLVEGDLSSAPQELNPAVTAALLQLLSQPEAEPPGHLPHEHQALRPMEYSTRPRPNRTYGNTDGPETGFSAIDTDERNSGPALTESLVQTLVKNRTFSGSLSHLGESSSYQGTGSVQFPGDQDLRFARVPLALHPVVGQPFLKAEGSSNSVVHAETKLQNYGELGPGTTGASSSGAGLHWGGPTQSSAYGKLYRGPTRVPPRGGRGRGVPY

[2] = system: MDA-MB-436; test: Antiproliferative activity against human MDA-MB-436 cells assessed as inhibition of cell growth incubated for 24 hrs by MTT assay; assay type: functional, cell-based
[3] = system: MDA-MB-436; test: Antiproliferative activity against human MDA-MB-436 cells assessed as inhibition of cell growth incubated for 48 hrs by MTT assay; assay type: functional, cell-based; details: MDA-MB-436, 48 h
[4] = system: MDA-MB-231; test: Antiproliferative activity against human MDA-MB-231 cells assessed as inhibition of cell growth incubated for 48 hrs by MTT assay; assay type: functional, cell-based; details: MDA-MB-231, 48 h
[5] = system: MDA-MB-231; test: Synergistic antiproliferative activity against human MDA-MB-231 cells in presence of Olaparib incubated for 24 hrs by MTT assay; assay type: functional, cell-based
[6] = system: MDA-MB-436; test: Antiproliferative activity against human MDA-MB-436 cells assessed as inhibition of cell growth incubated for 72 hrs by MTT assay; assay type: functional, cell-based; details: MDA-MB-436, 72 h
[7] = system: MDA-MB-468; test: Antiproliferative activity against human MDA-MB-468 cells assessed as inhibition of cell growth incubated for 48 hrs by MTT assay; assay type: functional, cell-based; details: MDA-MB-468, 48 h
[8] = system: MDA-MB-468; test: Antiproliferative activity against human MDA-MB-468 cells assessed as inhibition of cell growth incubated for 72 hrs by MTT assay; assay type: functional, cell-based; details: MDA-MB-468, 72 h
[9] = system: MDA-MB-231; test: cells; details: Homo sapiens, MDA-MB-231, 72 h
[10] = system: MDA-MB-231; test: Antiproliferative activity against human MDA-MB-231 cells assessed as inhibition of cell growth incubated for 24 hrs by MTT assay; assay type: functional, cell-based; details: MDA-MB-231, 24 h
[11] = system: MDA-MB-468; test: Antiproliferative activity against human MDA-MB-468 cells assessed as inhibition of cell growth incubated for 24 hrs by MTT assay; assay type: functional, cell-based; details: MDA-MB-468, 24 h
[12] = target: Poly [ADP-ribose] polymerase 1 (Homo sapiens, UniProt P09874); test: Inhibition of PARP1 (unknown origin) incubated for 1 hr by ELISA analysis
Poly [ADP-ribose] polymerase 1, sequence (P09874 whole entry): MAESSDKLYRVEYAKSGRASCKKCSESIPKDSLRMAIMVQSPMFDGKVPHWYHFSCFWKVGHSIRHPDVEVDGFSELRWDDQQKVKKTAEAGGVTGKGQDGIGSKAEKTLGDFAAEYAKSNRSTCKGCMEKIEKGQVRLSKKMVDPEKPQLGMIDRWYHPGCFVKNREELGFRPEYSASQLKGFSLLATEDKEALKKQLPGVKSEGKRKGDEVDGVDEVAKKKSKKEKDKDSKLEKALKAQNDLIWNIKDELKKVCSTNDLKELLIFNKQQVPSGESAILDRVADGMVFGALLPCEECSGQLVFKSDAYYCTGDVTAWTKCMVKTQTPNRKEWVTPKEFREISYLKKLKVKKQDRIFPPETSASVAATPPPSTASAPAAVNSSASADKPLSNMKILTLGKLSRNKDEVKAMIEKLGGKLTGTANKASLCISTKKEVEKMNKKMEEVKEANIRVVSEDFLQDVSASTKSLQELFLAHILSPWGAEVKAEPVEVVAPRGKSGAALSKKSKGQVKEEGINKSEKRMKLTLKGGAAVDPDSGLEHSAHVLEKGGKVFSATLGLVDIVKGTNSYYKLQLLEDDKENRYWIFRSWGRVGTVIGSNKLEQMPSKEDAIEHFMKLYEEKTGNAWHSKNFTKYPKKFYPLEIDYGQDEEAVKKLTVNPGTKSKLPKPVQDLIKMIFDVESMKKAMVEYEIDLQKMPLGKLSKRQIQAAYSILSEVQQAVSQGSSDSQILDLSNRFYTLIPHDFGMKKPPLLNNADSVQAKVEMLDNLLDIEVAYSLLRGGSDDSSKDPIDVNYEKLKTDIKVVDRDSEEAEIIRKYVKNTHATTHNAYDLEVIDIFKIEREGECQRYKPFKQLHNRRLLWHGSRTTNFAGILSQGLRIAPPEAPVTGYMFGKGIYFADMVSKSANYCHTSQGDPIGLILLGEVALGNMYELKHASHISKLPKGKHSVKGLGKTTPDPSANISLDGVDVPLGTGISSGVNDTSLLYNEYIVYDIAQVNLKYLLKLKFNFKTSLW

[13] = target: T1, Cyclin-dependent kinase 12; test: Inhibition of CDK12 (unknown origin) in presence of ATP by kinase-glo plus luminescent assay
Target sequence in this assay (Q9NYV4 whole entry): as the sequence (Q9NYV4 whole entry, looked up) above

[14] = target: Poly [ADP-ribose] polymerase 2 (Homo sapiens, UniProt Q9UGN5); test: Inhibition of PARP2 (unknown origin) incubated for 1 hr by ELISA analysis
Poly [ADP-ribose] polymerase 2, sequence (Q9UGN5 whole entry): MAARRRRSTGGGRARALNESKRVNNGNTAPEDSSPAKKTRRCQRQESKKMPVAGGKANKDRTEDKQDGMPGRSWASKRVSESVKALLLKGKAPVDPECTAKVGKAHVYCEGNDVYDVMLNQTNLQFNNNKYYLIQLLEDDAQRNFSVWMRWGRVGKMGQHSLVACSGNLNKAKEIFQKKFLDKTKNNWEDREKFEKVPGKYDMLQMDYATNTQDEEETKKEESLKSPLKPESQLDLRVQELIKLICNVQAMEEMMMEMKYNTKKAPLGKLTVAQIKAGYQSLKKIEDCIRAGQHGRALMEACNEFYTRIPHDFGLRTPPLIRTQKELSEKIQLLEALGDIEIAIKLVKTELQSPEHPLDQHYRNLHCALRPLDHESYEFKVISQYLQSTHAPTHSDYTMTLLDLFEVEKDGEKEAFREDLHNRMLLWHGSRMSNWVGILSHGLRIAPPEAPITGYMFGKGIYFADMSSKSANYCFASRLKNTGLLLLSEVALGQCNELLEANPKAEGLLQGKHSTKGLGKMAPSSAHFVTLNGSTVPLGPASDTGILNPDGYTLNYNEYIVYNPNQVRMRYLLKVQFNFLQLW

[15] = Metabolic stability in human liver microsome assessed as intrinsic clearance in presence of NADPH incubated upto 60 mins by LC-MS/MS analysis; assay type: ADME; details: liver microsomes, read-out: CLH
[16] = Metabolic stability in BALB/c mouse liver microsome assessed as intrinsic clearance in presence of NADPH incubated upto 60 mins by LC-MS/MS analysis; assay type: ADME; details: liver microsomes, read-out: CLH
[17] = Metabolic stability in BALB/c mouse liver microsome assessed as half life in presence of NADPH incubated upto 60 mins by LC-MS/MS analysis; assay type: ADME; details: liver microsomes
[18] = Metabolic stability in human liver microsome assessed as half life in presence of NADPH incubated upto 60 mins by LC-MS/MS analysis; assay type: ADME; details: liver microsomes

Row | SMILES | inhibition [1] [%] | IC50 ([2]; mda-mb-436) | IC50 [3] [µM] | IC50 [4] [µM] | IC50 [6] [µM] | IC50 [7] [µM] | IC50 [8] [µM] | IC50 [9] [µM] | IC50 [10] [µM] | IC50 ([2]; Homo sapiens, MDA-MB-436, 24 h) [µM] | IC50 [11] [µM] | IC50 [12] [µM] | IC50 [13] [µM] | IC50 [14] [µM] | Activity [5] | CLint scaled [15] [mL/min/kg] | CLint scaled [16] [mL/min/kg] | half-life [17] [min] | half-life [18] [min]
1 | CN(C)C/C=C/C(=O)Nc1ccc(C(=O)N2CCC[C@@H](Nc3ncc(Cl)c(-c4c[nH]c5ccccc45)n3)C2)cc1 | 98.6 | 14.3 µM and 4.6 µM | 18.1 | 17.9 | 6.4 | 14.4 | 5.8 | 7.1 |  |  |  |  |  |  | Active |  |  |  | 
2 | O=C(c1cc(Cc2n[nH]c(=O)c3ccccc23)ccc1F)N1CCN(C(=O)C2CC2)CC1 [OLAPARIB] | 7 |  | 1.5 | 1.7 | 0.7 | 1.4 | 0.6 | 0.8 | 3.5 | 4.6 | 3.4 |  |  |  |  |  |  |  | 
3 | NC(=O)c1cccc2[nH]c(NC(=O)c3cccc(C(=O)N4CCC(Nc5ncc(Cl)cn5)CC4)c3)nc12 | 68.3 |  |  |  |  |  |  |  | 15.6 | 12.6 | 14.2 | 0.043 | 0.554 | 0.035 |  |  |  |  | 
4 | O=C(c1ccc(F)cc1)C1CCN(CCn2c(=O)[nH]c3ccccc3c2=O)CC1 [KETANSERIN] |  |  |  |  |  |  |  |  |  |  |  |  |  |  |  | 47.7 | 185 | 29.4 | 33.6
5 | NC(=O)c1cccc2[nH]c(NC(=O)c3cccc(C(=O)N4CCC(Nc5ncc(Br)cn5)CC4)c3)nc12 | 75.4 |  |  |  |  |  |  |  | 10.2 | 11.1 | 12.4 | 0.037 | 0.344 | 0.032 |  |  |  |  | 

Second part, led by results:

Row | inhibition [1] [%] | IC50 ([2]; mda-mb-436) | IC50 [3] [µM] | IC50 [4] [µM] | IC50 [6] [µM] | IC50 [7] [µM] | IC50 [8] [µM] | IC50 [9] [µM] | IC50 [10] [µM] | IC50 ([2]; Homo sapiens, MDA-MB-436, 24 h) [µM] | IC50 [11] [µM] | IC50 [12] [µM] | IC50 [13] [µM] | IC50 [14] [µM] | SMILES | Activity [5] | CLint scaled [15] [mL/min/kg] | CLint scaled [16] [mL/min/kg] | half-life [17] [min] | half-life [18] [min]
6 | 79.4 |  |  |  |  |  |  |  | 10.3 | 11.2 | 10.5 | 0.167 | 0.269 | 0.131 | NC(=O)c1cccc2[nH]c(NC(=O)c3cccc(C(=O)N4CCC(Nc5ncc(C(F)(F)F)cn5)CC4)c3)nc12 |  |  |  |  | 
7 | 24.3 |  |  |  |  |  |  |  | > 30 | 28.7 | > 30 | 0.071 | > 10 | 0.065 | NC(=O)c1cccc2[nH]c(NC(=O)c3cccc(C(=O)N4CCC(Nc5ncc(F)cn5)CC4)c3)nc12 |  |  |  |  | 
